According to PubChem BioAssay AID2060615 (Molecular Pharmacology Branch, DTP, NCI, 2025):

Test system: 496974-208-R-J2-PDC complex spheroids, growth % test/control
Experiment: Anticancer human tumor 496974-208-R-J2-PDC patient-derived pancreatic carcinoma cell line growth inhibition [CLK]
Conditions: for IC50: curve of first compound; for viability, T/C: stronger effect = lower value
Outline: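 Multi-cell-type spheroids combined patient-derived tumor cells with HUVEC endothelial cells and human mesenchymal stem cells. Paired agents were dosed in half-log steps down from about clinical Cmax, or from 10 microM where Cmax was unknown.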

[1] = second compound 0.0316 µM, first compound 0.0316 µM
[2] = second compound 0.0316 µM, first compound 0.1 µM
[3] = second compound 0.0316 µM, first compound 0.316 µM
[4] = second compound 0.0316 µM, first compound 1 µM
[5] = second compound 0.0316 µM, first compound 3.16 µM
[6] = second compound 0.0316 µM, first compound 10 µM
[7] = second compound 0.1 µM, first compound 0.0316 µM
[8] = second compound 0.1 µM, first compound 0.1 µM
[9] = second compound 0.1 µM, first compound 0.316 µM
[10] = second compound 0.1 µM, first compound 1 µM
[11] = second compound 0.1 µM, first compound 3.16 µM
[12] = second compound 0.1 µM, first compound 10 µM
[13] = second compound 0.316 µM, first compound 0.0316 µM
[14] = second compound 0.316 µM, first compound 0.1 µM
[15] = second compound 0.316 µM, first compound 0.316 µM
[16] = second compound 0.316 µM, first compound 1 µM
[17] = second compound 0.316 µM, first compound 3.16 µM
[18] = second compound 0.316 µM, first compound 10 µM
[19] = second compound 1 µM, first compound 0.0316 µM
[20] = second compound 1 µM, first compound 0.1 µM
[21] = second compound 1 µM, first compound 0.316 µM
[22] = second compound 1 µM, first compound 1 µM
[23] = second compound 1 µM, first compound 3.16 µM
[24] = second compound 1 µM, first compound 10 µM
[25] = second compound 3.16 µM, first compound 0.0316 µM
[26] = second compound 3.16 µM, first compound 0.1 µM
[27] = second compound 3.16 µM, first compound 0.316 µM
[28] = second compound 3.16 µM, first compound 1 µM
[29] = second compound 3.16 µM, first compound 3.16 µM
[30] = second compound 3.16 µM, first compound 10 µM
[31] = second compound 10 µM, first compound 0.0316 µM
[32] = second compound 10 µM, first compound 0.1 µM
[33] = second compound 10 µM, first compound 0.316 µM
[34] = second compound 10 µM, first compound 1 µM
[35] = second compound 10 µM, first compound 3.16 µM
[36] = second compound 10 µM, first compound 10 µM
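Also: spheroids exposed to the drugs for 7 days before readout.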
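For viability, T/C in this document: 100% = DMSO vehicle control wells.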

CC(=O)O[C@H]1C(=O)[C@@]2(C)[C@H]([C@H](OC(=O)c3ccccc3)[C@]3(O)C[C@H](OC(=O)[C@H](O)[C@@H](NC(=O)c4ccccc4)c4ccccc4)C(C)=C1C3(C)C)[C@]1(OC(C)=O)CO[C@@H]1C[C@@H]2O + CN1CCN(c2cc(C(=O)Nc3cc4cc(-c5cnn(C)c5)ccc4cn3)ccn2)CC1
IC50 (second compound 0.0316 µM): < 0.0316 µM
IC50 (second compound 0.1 µM): < 0.0316 µM
IC50 (second compound 0.316 µM): < 0.0316 µM
IC50 (second compound 1 µM): < 0.0316 µM
IC50 (second compound 3.16 µM): < 0.0316 µM
IC50 (second compound 10 µM): < 0.0316 µM
viability, T/C [1]: 35.9%
viability, T/C [2]: 29.4%
viability, T/C [3]: 33.5%
viability, T/C [4]: 29.2%
viability, T/C [5]: 31.5%
viability, T/C [6]: 27.9%
viability, T/C [7]: 29.4%
viability, T/C [8]: 25.9%
viability, T/C [9]: 27.7%
viability, T/C [10]: 29.5%
viability, T/C [11]: 24.8%
viability, T/C [12]: 23.7%
viability, T/C [13]: 5.33%
viability, T/C [14]: 4.57%
viability, T/C [15]: 5.74%
viability, T/C [16]: 4.55%
viability, T/C [17]: 5.22%
viability, T/C [18]: 4.68%
viability, T/C [19]: 0.41%
viability, T/C [20]: 0.53%
viability, T/C [21]: 0.5%
viability, T/C [22]: 0.41%
viability, T/C [23]: 0.36%
viability, T/C [24]: 0.37%
viability, T/C [25]: 0.58%
viability, T/C [26]: 0.77%
viability, T/C [27]: 2.07%
viability, T/C [28]: 0.54%
viability, T/C [29]: 0.58%
viability, T/C [30]: 0.34%
viability, T/C [31]: 0.23%
viability, T/C [32]: 0.29%
viability, T/C [33]: 0.24%
viability, T/C [34]: 0.25%
viability, T/C [35]: 2.61%
viability, T/C [36]: 0.28%

CCc1c2c(nc3ccc(O)cc13)-c1cc3c(c(=O)n1C2)COC(=O)[C@]3(O)CC + CN1CCN(c2cc(C(=O)Nc3cc4cc(-c5cnn(C)c5)ccc4cn3)ccn2)CC1
IC50 (second compound 0.0316 µM): 0.00779 µM
IC50 (second compound 0.1 µM): < 0.00316 µM
IC50 (second compound 0.316 µM): < 0.00316 µM
IC50 (second compound 1 µM): < 0.00316 µM
IC50 (second compound 3.16 µM): < 0.00316 µM
IC50 (second compound 10 µM): < 0.00316 µM
viability, T/C (second compound 0.0316 µM, first compound 0.00316 µM): 62.2%
viability, T/C (second compound 0.0316 µM, first compound 0.01 µM): 47.5%
viability, T/C [1]: 26.7%
viability, T/C [2]: 14.5%
viability, T/C [3]: 6.46%
viability, T/C [4]: 1.65%
viability, T/C (second compound 0.1 µM, first compound 0.00316 µM): 49.3%
viability, T/C (second compound 0.1 µM, first compound 0.01 µM): 38.7%
viability, T/C [7]: 23.3%
viability, T/C [8]: 10.7%
viability, T/C [9]: 3.35%
viability, T/C [10]: 0.91%
viability, T/C (second compound 0.316 µM, first compound 0.00316 µM): 6.81%
viability, T/C (second compound 0.316 µM, first compound 0.01 µM): 5.74%
viability, T/C [13]: 3.64%
viability, T/C [14]: 2%
viability, T/C [15]: 0.48%
viability, T/C [16]: 1.92%
viability, T/C (second compound 1 µM, first compound 0.00316 µM): 0.35%
viability, T/C (second compound 1 µM, first compound 0.01 µM): 0.69%
viability, T/C [19]: 3.07%
viability, T/C [20]: 0.44%
viability, T/C [21]: 0.26%
viability, T/C [22]: 1.23%
viability, T/C (second compound 3.16 µM, first compound 0.00316 µM): 0.46%
viability, T/C (second compound 3.16 µM, first compound 0.01 µM): 0.62%
viability, T/C [25]: 1.9%
viability, T/C [26]: 0.34%
viability, T/C [27]: 0.73%
viability, T/C [28]: 0.29%
viability, T/C (second compound 10 µM, first compound 0.00316 µM): 0.14%
viability, T/C (second compound 10 µM, first compound 0.01 µM): 0.25%
viability, T/C [31]: 1.21%
viability, T/C [32]: 0.21%
viability, T/C [33]: 0.65%
viability, T/C [34]: 3.41%

COc1ccc([C@@H](O)c2cc(-c3ncnc4cc(N5CCOCC5)ccc34)c(F)cc2Cl)nn1 + CN1CCN(c2cc(C(=O)Nc3cc4cc(-c5cnn(C)c5)ccc4cn3)ccn2)CC1
IC50 (second compound 0.0316 µM): 5.97 µM
IC50 (second compound 0.1 µM): 3.47 µM
IC50 (second compound 0.316 µM): < 0.0316 µM
IC50 (second compound 1 µM): < 0.0316 µM
IC50 (second compound 3.16 µM): < 0.0316 µM
IC50 (second compound 10 µM): < 0.0316 µM
viability, T/C [1]: 110%
viability, T/C [2]: 101%
viability, T/C [3]: 92.9%
viability, T/C [4]: 88.7%
viability, T/C [5]: 63.6%
viability, T/C [6]: 37.7%
viability, T/C [7]: 84.8%
viability, T/C [8]: 81.4%
viability, T/C [9]: 84.2%
viability, T/C [10]: 69.9%
viability, T/C [11]: 52.2%
viability, T/C [12]: 31.5%
viability, T/C [13]: 4.25%
viability, T/C [14]: 4.3%
viability, T/C [15]: 5.59%
viability, T/C [16]: 3.72%
viability, T/C [17]: 2.53%
viability, T/C [18]: 1.66%
viability, T/C [19]: 0.41%
viability, T/C [20]: 0.45%
viability, T/C [21]: 2.89%
viability, T/C [22]: 0.48%
viability, T/C [23]: 1.17%
viability, T/C [24]: 1.46%
viability, T/C [25]: 0.36%
viability, T/C [26]: 0.61%
viability, T/C [27]: 0.67%
viability, T/C [28]: 0.54%
viability, T/C [29]: 2.79%
viability, T/C [30]: 2.82%
viability, T/C [31]: 0.19%
viability, T/C [32]: 0.34%
viability, T/C [33]: 1.74%
viability, T/C [34]: 0.3%
viability, T/C [35]: 2%
viability, T/C [36]: 2.87%

COc1cccc2c1C(=O)c1c(O)c3c(c(O)c1C2=O)CC(O)(C(=O)CO)CC3OC1CC(N)C(O)C(C)O1 (stereo not given) + CN1CCN(c2cc(C(=O)Nc3cc4cc(-c5cnn(C)c5)ccc4cn3)ccn2)CC1
IC50 (second compound 0.0316 µM): 0.12 µM
IC50 (second compound 0.1 µM): 0.0785 µM
IC50 (second compound 0.316 µM): < 0.0316 µM
IC50 (second compound 1 µM): < 0.0316 µM
IC50 (second compound 3.16 µM): < 0.0316 µM
IC50 (second compound 10 µM): < 0.0316 µM
viability, T/C [1]: 68.7%
viability, T/C [2]: 51.4%
viability, T/C [3]: 30.8%
viability, T/C [4]: 3.22%
viability, T/C [5]: 0.57%
viability, T/C [6]: 0.47%
viability, T/C [7]: 59.9%
viability, T/C [8]: 46.6%
viability, T/C [9]: 20.3%
viability, T/C [10]: 2.07%
viability, T/C [11]: 0.59%
viability, T/C [12]: 4.88%
viability, T/C [13]: 7.3%
viability, T/C [14]: 3.63%
viability, T/C [15]: 1.93%
viability, T/C [16]: 0.81%
viability, T/C [17]: 0.45%
viability, T/C [18]: 3.13%
viability, T/C [19]: 0.57%
viability, T/C [20]: 1.13%
viability, T/C [21]: 0.75%
viability, T/C [22]: 0.66%
viability, T/C [23]: 0.36%
viability, T/C [24]: 4.38%
viability, T/C [25]: 0.52%
viability, T/C [26]: 0.84%
viability, T/C [27]: 0.57%
viability, T/C [28]: 0.48%
viability, T/C [29]: 1.77%
viability, T/C [30]: 4.51%
viability, T/C [31]: 0.22%
viability, T/C [32]: 1.44%
viability, T/C [33]: 0.2%
viability, T/C [34]: 0.2%
viability, T/C [35]: 0.21%
viability, T/C [36]: 5.39%

O=c1[nH]cc(F)c(=O)[nH]1 + CN1CCN(c2cc(C(=O)Nc3cc4cc(-c5cnn(C)c5)ccc4cn3)ccn2)CC1
IC50 (second compound 0.0316 µM): 5.87 µM
IC50 (second compound 0.1 µM): 4.19 µM
IC50 (second compound 0.316 µM): < 0.0316 µM
IC50 (second compound 1 µM): < 0.0316 µM
IC50 (second compound 3.16 µM): < 0.0316 µM
IC50 (second compound 10 µM): < 0.0316 µM
viability, T/C [1]: 108%
viability, T/C [2]: 99.2%
viability, T/C [3]: 99.3%
viability, T/C [4]: 76.8%
viability, T/C [5]: 60.1%
viability, T/C [6]: 42%
viability, T/C [7]: 83.5%
viability, T/C [8]: 83.7%
viability, T/C [9]: 76.3%
viability, T/C [10]: 68.1%
viability, T/C [11]: 54.2%
viability, T/C [12]: 37.4%
viability, T/C [13]: 7.23%
viability, T/C [14]: 6.68%
viability, T/C [15]: 5.78%
viability, T/C [16]: 6.41%
viability, T/C [17]: 6.09%
viability, T/C [18]: 6.36%
viability, T/C [19]: 0.41%
viability, T/C [20]: 0.51%
viability, T/C [21]: 0.5%
viability, T/C [22]: 0.43%
viability, T/C [23]: 0.32%
viability, T/C [24]: 0.55%
viability, T/C [25]: 0.44%
viability, T/C [26]: 0.46%
viability, T/C [27]: 0.41%
viability, T/C [28]: 0.57%
viability, T/C [29]: 0.41%
viability, T/C [30]: 2.84%
viability, T/C [31]: 0.24%
viability, T/C [32]: 0.41%
viability, T/C [33]: 0.35%
viability, T/C [34]: 0.27%
viability, T/C [35]: 1.4%
viability, T/C [36]: 1.8%
